{
  "source": "patent US12195427B2",
  "about": "“MASP-2 inhibitors and methods of use” (priority 2018, dated 2025)",
  "target": "MASP-2 CCP2-SP (Homo sapiens (Human), UniProt O00187)",
  "sequence (O00187 445-686)": "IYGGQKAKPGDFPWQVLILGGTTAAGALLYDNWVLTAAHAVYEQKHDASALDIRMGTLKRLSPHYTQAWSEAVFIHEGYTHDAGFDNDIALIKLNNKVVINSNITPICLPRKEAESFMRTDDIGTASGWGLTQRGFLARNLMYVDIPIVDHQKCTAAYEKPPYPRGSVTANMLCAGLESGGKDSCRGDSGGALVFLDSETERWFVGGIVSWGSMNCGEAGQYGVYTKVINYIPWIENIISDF",
  "sequence (O00187 364-432 partner)": "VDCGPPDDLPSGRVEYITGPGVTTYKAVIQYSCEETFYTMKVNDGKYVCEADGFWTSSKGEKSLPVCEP",
  "experiment": "MASP-2 co-crystallization, X-ray crystallography and structure analysis (H-bonds, van der Waals contacts);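 as to Ligand-pharmacophore element distance, pharmacophore element C2: distance from averaged pharmacophore element to bound ligand; missing value means element absent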;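 as to Ligand-pharmacophore element distance, pharmacophore element C3: distance from averaged pharmacophore element to bound ligand; missing value means element absent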;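 as to Ligand-pharmacophore element distance, pharmacophore element C4: distance from averaged pharmacophore element to bound ligand; missing value means element absent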;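 as to Ligand-pharmacophore element distance, pharmacophore element C5: distance from averaged pharmacophore element to bound ligand; missing value means element absent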",
  "set-up": "van der Waals contact distance, MASP-2 HIS 483 atom CD2 / van der Waals contact distance, MASP-2 HIS 483 atom NE2 / van der Waals contact distance, SER 654 C to compound atom / van der Waals contact distance, SER 654 O to compound atom / van der Waals contact distance, TRP 655 C to compound atom / van der Waals contact distance, MASP-2 GLY 528 atom CA / van der Waals contact distance TRP 655 atom CZ3 / van der Waals contact distance TRP 655 atom N / van der Waals contact distance TRP 655 atom CE3 / van der Waals contact distance GLY 656 atom C / van der Waals contact distance GLY 656 atom CA / van der Waals contact distance GLY 656 atom O / van der Waals contact distance, MASP-2 TYR 607 atom CD1 / van der Waals contact distance, MASP-2 PRO 606 atom O / d(C3,CA1) / d(CA1,N1)2 / d(H4,O1) / d(H4,O2) / d(O1,O2) / d(CA1,O2) / d(CA6,O1) / d(CA6,O2) / d(CA1,C5) / d(O2,H3) / d(N2,C2) / d(CA5,N2) / d(N2,C4) / d(N2,C6) / d(N2,CA3) / d(N2,O3) / d(O4,H2): unit not given beside the values",
  "outline": "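Inhibitor complexes were obtained by soaking crystals of E. coli-derived human MASP-2 CCP2-SP. Synchrotron diffraction at 1.0 wavelength, molecular replacement and partial refinement gave the models; one pose per ligand was chosen for contact analysis.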",
  "key": {"[1]": {"conditions": "Table A5-1 pharmacophore: distance between elements, S2/S1 region"}, "[2]": {"conditions": "Table A5-2 pharmacophore distance, S3/S4 region"}, "[3]": {"conditions": "Table A7-1, between pharmacophore elements of the bound compound"}, "[4]": {"conditions": "Table A7-2, between pharmacophore elements of the bound compound"}},
  "note": "Where a name gives a salt, the structure may show the parent alone.",
  "data": [
    {"smiles": "Cc1nc(N)ccc1CNC(=O)[C@H](C)NC(=O)[C@H]1C[C@H](Cc2cc(-c3ccccc3)cs2)CN1", "note": "[compound 1399, (2R,4R)—N—((S)-1-(((6-Amino-2-methylpyridin-3-yl)methyl)amino)-1-oxopropan-2-yl)-4-((4-phenylthiophen-2-yl)methyl)pyrrolidine-2-carboxamide Dihydrochloride]", "values": [
      {"measurement": "H-bond distance to MASP-2 ASP 627 atom OD2", "setting": "Table A1 (H-Bonds), ASP 627 OD2", "result": 3.26},
      {"measurement": "H-bond distance to MASP-2 GLY 656 atom N", "setting": "Table A1 (H-Bonds), GLY 656 N", "result": 3.21},
      {"measurement": "H-bond distance to MASP-2 GLY 656 atom O", "setting": "Table A1 (H-Bonds), GLY 656 O", "result": 2.75},
      {"measurement": "H-bond distance to MASP-2 SER 628 atom O", "setting": "Table A1 (H-Bonds), SER 628 O", "result": 3.15},
      {"measurement": "H-bond distance to MASP-2 SER 654 atom O", "setting": "Table A1 (H-Bonds), SER 654 O", "result": 3.04},
      {"measurement": "H-bond distance to MASP-2 SER 657 atom O", "setting": "Table A1 (H-Bonds), SER 657 O", "result": 2.86},
      {"measurement": "van der Waals contact distance, MASP-2 amino acid atom to compound atom", "setting": "Table A2", "result": 3.7},
      {"measurement": "van der Waals contact distance, MASP-2 HIS 483 atom CD2", "setting": "Table A2-1", "result": 3.72},
      {"measurement": "van der Waals contact distance, MASP-2 HIS 483 atom NE2", "setting": "Table A2-1", "result": 3.6},
      {"measurement": "van der Waals contact distance, MASP-2 PHE 529 atom CD2", "setting": "Table A2-3", "result": 3.85},
      {"measurement": "van der Waals contact distance, MASP-2 PHE 529 atom CE2", "setting": "Table A2-3", "result": 3.7},
      {"measurement": "van der Waals contact distance, MASP-2 amino acid atom to compound atom", "setting": "Table A2-7: SER 628 (CB, O, OG)", "result": 3.61},
      {"measurement": "van der Waals contact distance, VAL 653 CG1 to compound atom", "setting": "Table A2-11", "result": 3.32},
      {"measurement": "van der Waals contact distance, TRP 655 CA to compound atom", "setting": "Table A2-12", "result": 3.43},
      {"measurement": "van der Waals contact distance TRP 655 atom CZ3", "setting": "Table A2-13, MASP-2 TRP 655 CZ3", "result": 3.42},
      {"measurement": "van der Waals contact distance, MASP-2 amino acid atom to compound atom", "setting": "Table A2 section before Table A2-8", "result": 3.81},
      {"measurement": "Ligand-pharmacophore element distance, pharmacophore element C2", "setting": "Table A4-1, element C2", "result": 0},
      {"measurement": "Ligand-pharmacophore element distance, pharmacophore element C3", "setting": "Table A4-1, element C3", "result": 0.14},
      {"measurement": "Ligand-pharmacophore element distance, pharmacophore element C4", "setting": "Table A4-1, element C4", "result": 0},
      {"measurement": "Ligand-pharmacophore element distance, pharmacophore element C5", "setting": "Table A4-1, element C5", "result": 0},
      {"measurement": "Ligand-pharmacophore element distance, pharmacophore element C6", "setting": "Table A4-1, element C6", "result": 0},
      {"measurement": "Ligand-pharmacophore element distance, pharmacophore element C7", "setting": "Table A4-1, element C7", "result": 0},
      {"measurement": "Ligand-pharmacophore element distance, pharmacophore element CA1", "setting": "Table A4-1, element CA1", "result": 0.59},
      {"measurement": "Ligand-pharmacophore element distance, pharmacophore element CA2", "setting": "Table A4-1, element CA2", "result": 0.85},
      {"measurement": "Ligand-pharmacophore element distance, pharmacophore element CA3", "setting": "Table A4-1, element CA3", "result": 0},
      {"measurement": "Ligand-pharmacophore element distance, pharmacophore element CA4", "setting": "Table A4-1, element CA4", "result": 2.39},
      {"measurement": "Ligand-pharmacophore element distance, pharmacophore element CA5", "setting": "Table A4-1, element CA5", "result": 0},
      {"measurement": "Ligand-pharmacophore element distance, pharmacophore element CA6", "setting": "Table A4-1, element CA6", "result": 0},
      {"measurement": "d(C3,CA1)", "setting": "[1]", "result": 2.86},
      {"measurement": "d(CA1,N1)2", "setting": "[1]", "result": 1.38},
      {"measurement": "d(CA1,O1)", "setting": "[1]", "result": 4.40},
      {"measurement": "d(CA1,O2)", "setting": "[1]", "result": 3.92},
      {"measurement": "d(H4,O1)", "setting": "[1]", "result": 4.40},
      {"measurement": "d(H4,O2)", "setting": "[1]", "result": 3.82},
      {"measurement": "d(O1,O2)", "setting": "[1]", "result": 3.33},
      {"measurement": "d(N2,CA2)", "setting": "[2]", "result": 5.96},
      {"measurement": "d(O2,H3)", "setting": "[2]", "result": 4.09},
      {"measurement": "d(O2,N2)", "setting": "[2]", "result": 2.67},
      {"measurement": "a(C3, CA1, O1)", "setting": "Table A6-1 pharmacophore angle", "result": 149.86},
      {"measurement": "a(CA1, O1, O2)", "setting": "Table A6-1 pharmacophore angle", "result": 105.80},
      {"measurement": "a(O1, O2, H4)", "setting": "Table A6-1 pharmacophore angle", "result": 132.84},
      {"measurement": "a(N1, CA1, O1) b)", "setting": "Table A6-1 pharmacophore angle, Methyl-amino-pyridine compounds", "result": 173.87},
      {"measurement": "a(O1, O2, H3)", "setting": "Table A6-2 pharmacophore angle", "result": 145.77},
      {"measurement": "a(O1, O2, N2)", "setting": "Table A6-2 pharmacophore angle", "result": 143.45},
      {"measurement": "a(O2, N2, CA2)", "setting": "Table A6-2 pharmacophore angle", "result": 157.06},
      {"measurement": "Pharmacophore torsion angle a(C3, CA1, O1, H4)", "setting": "[3]", "result": 24.20},
      {"measurement": "Pharmacophore torsion angle a(H4, O1, O2, H3)", "setting": "[3]", "result": 50.25},
      {"measurement": "Pharmacophore torsion angle a(H4, O1, O2, N2)", "setting": "[3]", "result": 142.63},
      {"measurement": "Pharmacophore torsion angle a(N1, CA1, O1, H4)", "setting": "[3]", "result": 0.87},
      {"measurement": "Pharmacophore torsion angle a(O1, H4, O2, CA1)", "setting": "[3]", "result": "−83.35"},
      {"measurement": "Pharmacophore torsion angle a(O1, O2, N2, CA2)", "setting": "[4]", "result": 126.87},
      {"measurement": "Pharmacophore torsion angle a(O1, O2, N2, CA4)", "setting": "[4]", "result": 113.10}
    ]}
  ]
}
